Test results published in PubChem BioAssay (NCI).
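Method: 48-hour compound exposure of cells in 96-well plates, five concentrations, linear interpolation of endpoints. GI50 marks 50% less growth. TGI denotes the concentration required for complete inhibition of growth.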

What was measured:
Experiment in all cases: DTP human tumour cell line panel, 48 h
786-0 renal = system: 786-0 renal
A498 renal = system: A498 renal
A549 NSCLC = system: A549 NSCLC
ACHN renal = system: ACHN renal
BT-549 breast = system: BT-549 breast
CCRF-CEM leukemia = system: CCRF-CEM leukemia
COLO 205 colon = system: COLO 205 colon
DU-145 prostate = system: DU-145 prostate
EKVX NSCLC = system: EKVX NSCLC
HCC-2998 colon = system: HCC-2998 colon
HCT-116 colon = system: HCT-116 colon
HCT-15 colon = system: HCT-15 colon
HL-60(TB) leukemia = system: HL-60(TB) leukemia
HOP-62 NSCLC = system: HOP-62 NSCLC
HOP-92 NSCLC = system: HOP-92 NSCLC
HS 578T breast = system: HS 578T breast
HT29 colon = system: HT29 colon
IGROV1 ovarian = system: IGROV1 ovarian
K-562 leukemia = system: K-562 leukemia
KM12 colon = system: KM12 colon
LOX IMVI melanoma = system: LOX IMVI melanoma
M14 melanoma = system: M14 melanoma
MCF7 breast = system: MCF7 breast
MDA-MB-231 breast = system: MDA-MB-231 breast
MDA-MB-435 = system: MDA-MB-435
MOLT-4 leukemia = system: MOLT-4 leukemia
NCI-H226 lung = system: NCI-H226 lung
NCI-H23 lung = system: NCI-H23 lung
NCI-H460 lung = system: NCI-H460 lung
NCI-H522 lung = system: NCI-H522 lung
NCI/ADR-RES ovarian = system: NCI/ADR-RES ovarian
OVCAR-3 ovarian = system: OVCAR-3 ovarian
OVCAR-4 ovarian = system: OVCAR-4 ovarian
OVCAR-5 ovarian = system: OVCAR-5 ovarian
OVCAR-8 ovarian = system: OVCAR-8 ovarian
PC-3 prostate = system: PC-3 prostate
RPMI-8226 leukemia = system: RPMI-8226 leukemia
RXF 393 renal = system: RXF 393 renal
SF-268 CNS = system: SF-268 CNS
SF-295 CNS = system: SF-295 CNS
SF-539 CNS = system: SF-539 CNS
SK-MEL-2 melanoma = system: SK-MEL-2 melanoma
SK-MEL-28 melanoma = system: SK-MEL-28 melanoma
SK-MEL-5 melanoma = system: SK-MEL-5 melanoma
SK-OV-3 ovarian = system: SK-OV-3 ovarian
SN12C renal = system: SN12C renal
SNB-19 CNS = system: SNB-19 CNS
SNB-75 CNS = system: SNB-75 CNS
SR leukemia = system: SR leukemia
SW-620 colon = system: SW-620 colon
T-47D breast = system: T-47D breast
TK-10 renal = system: TK-10 renal
U251 CNS = system: U251 CNS
UACC-257 melanoma = system: UACC-257 melanoma
UACC-62 melanoma = system: UACC-62 melanoma
UO-31 renal = system: UO-31 renal

Structure (SMILES): Cc1ccc2c(C3C(C#N)=C(N)Oc4cc5ccccc5cc43)cc(=O)oc2c1 (configuration not stated)
- GI50 (786-0 renal): 1.83 µM
- TGI (786-0 renal): > 100 µM
- GI50 (A498 renal): 4.23 µM
- TGI (A498 renal): 86.3 µM
- GI50 (A549 NSCLC): 2.95 µM
- TGI (A549 NSCLC): > 100 µM
- GI50 (ACHN renal): 4.54 µM
- TGI (ACHN renal): > 100 µM
- GI50 (BT-549 breast): 3.67 µM
- TGI (BT-549 breast): 64.3 µM
- GI50 (CCRF-CEM leukemia): 0.976 µM
- TGI (CCRF-CEM leukemia): > 100 µM
- GI50 (COLO 205 colon): 2.88 µM
- TGI (COLO 205 colon): 17.3 µM
- GI50 (DU-145 prostate): 3.79 µM
- TGI (DU-145 prostate): > 100 µM
- GI50 (EKVX NSCLC): 4.44 µM
- TGI (EKVX NSCLC): > 100 µM
- GI50 (HCC-2998 colon): 3.91 µM
- TGI (HCC-2998 colon): 58.6 µM
- GI50 (HCT-116 colon): 0.531 µM
- TGI (HCT-116 colon): 32.8 µM
- GI50 (HCT-15 colon): 0.64 µM
- TGI (HCT-15 colon): > 100 µM
- GI50 (HL-60(TB) leukemia): 0.424 µM
- TGI (HL-60(TB) leukemia): 17 µM
- GI50 (HOP-62 NSCLC): 1.22 µM
- TGI (HOP-62 NSCLC): > 100 µM
- GI50 (HOP-92 NSCLC): 19.7 µM
- TGI (HOP-92 NSCLC): 84 µM
- GI50 (HS 578T breast): 3.29 µM
- TGI (HS 578T breast): > 100 µM
- GI50 (HT29 colon): 3 µM
- TGI (HT29 colon): 13.1 µM
- GI50 (IGROV1 ovarian): 0.983 µM
- TGI (IGROV1 ovarian): > 100 µM
- GI50 (K-562 leukemia): 0.394 µM
- TGI (K-562 leukemia): > 100 µM
- GI50 (KM12 colon): 0.724 µM
- TGI (KM12 colon): > 100 µM
- GI50 (LOX IMVI melanoma): 3.17 µM
- TGI (LOX IMVI melanoma): > 100 µM
- GI50 (M14 melanoma): 0.697 µM
- TGI (M14 melanoma): 21.3 µM
- GI50 (MCF7 breast): 0.428 µM
- TGI (MCF7 breast): > 100 µM
- GI50 (MDA-MB-231 breast): 8.2 µM
- TGI (MDA-MB-231 breast): > 100 µM
- GI50 (MDA-MB-435): 0.286 µM
- TGI (MDA-MB-435): 1.07 µM
- GI50 (MOLT-4 leukemia): 2.05 µM
- TGI (MOLT-4 leukemia): > 100 µM
- GI50 (NCI-H226 lung): 62.1 µM
- TGI (NCI-H226 lung): > 100 µM
- GI50 (NCI-H23 lung): 6.06 µM
- TGI (NCI-H23 lung): > 100 µM
- GI50 (NCI-H460 lung): 0.883 µM
- TGI (NCI-H460 lung): 15.5 µM
- GI50 (NCI-H522 lung): 0.446 µM
- TGI (NCI-H522 lung): 11.6 µM
- GI50 (NCI/ADR-RES ovarian): 0.833 µM
- TGI (NCI/ADR-RES ovarian): > 100 µM
- GI50 (OVCAR-3 ovarian): 0.375 µM
- TGI (OVCAR-3 ovarian): 10.7 µM
- GI50 (OVCAR-4 ovarian): 11.4 µM
- TGI (OVCAR-4 ovarian): > 100 µM
- GI50 (OVCAR-5 ovarian): 3.76 µM
- TGI (OVCAR-5 ovarian): > 100 µM
- GI50 (OVCAR-8 ovarian): 4.47 µM
- TGI (OVCAR-8 ovarian): > 100 µM
- GI50 (PC-3 prostate): 1.25 µM
- TGI (PC-3 prostate): > 100 µM
- GI50 (RPMI-8226 leukemia): 3.23 µM
- TGI (RPMI-8226 leukemia): 30.2 µM
- GI50 (RXF 393 renal): 0.671 µM
- TGI (RXF 393 renal): 6.11 µM
- GI50 (SF-268 CNS): 3.07 µM
- TGI (SF-268 CNS): > 100 µM
- GI50 (SF-295 CNS): 0.533 µM
- TGI (SF-295 CNS): > 100 µM
- GI50 (SF-539 CNS): 0.873 µM
- TGI (SF-539 CNS): 7.6 µM
- GI50 (SK-MEL-2 melanoma): 11.7 µM
- TGI (SK-MEL-2 melanoma): > 100 µM
- GI50 (SK-MEL-28 melanoma): 12.3 µM
- TGI (SK-MEL-28 melanoma): > 100 µM
- GI50 (SK-MEL-5 melanoma): 0.856 µM
- TGI (SK-MEL-5 melanoma): 19.9 µM
- GI50 (SK-OV-3 ovarian): 2.04 µM
- TGI (SK-OV-3 ovarian): > 100 µM
- GI50 (SN12C renal): 5.27 µM
- TGI (SN12C renal): > 100 µM
- GI50 (SNB-19 CNS): 1.79 µM
- TGI (SNB-19 CNS): > 100 µM
- GI50 (SNB-75 CNS): 6.89 µM
- TGI (SNB-75 CNS): > 100 µM
- GI50 (SR leukemia): 0.525 µM
- TGI (SR leukemia): > 100 µM
- GI50 (SW-620 colon): 0.736 µM
- TGI (SW-620 colon): > 100 µM
- GI50 (T-47D breast): 1.49 µM
- TGI (T-47D breast): 64 µM
- GI50 (TK-10 renal): 17.6 µM
- TGI (TK-10 renal): > 100 µM
- GI50 (U251 CNS): 2.28 µM
- TGI (U251 CNS): > 100 µM
- GI50 (UACC-257 melanoma): 24.5 µM
- TGI (UACC-257 melanoma): > 100 µM
- GI50 (UACC-62 melanoma): 0.704 µM
- TGI (UACC-62 melanoma): > 100 µM
- GI50 (UO-31 renal): 7.68 µM
- TGI (UO-31 renal): > 100 µM
